These results are taken from US10064840B2, “Pharmaceutical composition for the treatment of multi-drug resistant infections” (priority 2014, dated 2018).

Like-named read-outs stand apart in the source and are kept apart here. Where only a bound is given, the exact number is not on record here.

Holding throughout (assay type): cell-based
In assay [1] the test system is Staphylococcus aureus Mupr-1 (Mde A overexpressing). Briefly: Mde A efflux pump inhibition, broth checkerboard combination with mupirocin. As to conditions: for MIC: Staphylococcus aureus. On the procedure: Staphylococcus aureus Mupr-1 (Mde A overexpressing) was prepared in-house from SA-1199-Wild type clinical isolate which was gifted by Prof. Dr G. W. Kaatz (Wayne State University School of Medicine, Detroit, Mich., USA) by serially passaging SA-1199 strain on mupirocin. Combination studies were performed by a broth checkerboard method. A series of twofold dilutions of test mupirocin in Muller Hinton Broth (pH 7.0) was tested in combination with twofold dilutions of boeravinone B in 96-well microtiter plates. The final concentrations of mupirocin ranged from 0.03 mg/L/ml to 64 mg/L and for boeravinone B from 0.8 mg/L to 50 mg/L. Bacterial inocula were prepared by adjusting the inoculum density of the overnight grown Staphylococcus aureus Mup^r-1 (Mde A overexpressing) to 0.5 McFarland (˜1.5×10^8 CFU/mL of Escherichia coli). Mde A overexpressing derivative S. aureus strain was prepared in lab upon mupirocin treatment (Mup^r-1) from S. aureus strain ATCC No. 29213 (American type culture collection Manassas, Va., USA). These inocula were diluted 1:100 in sterile normal saline and 100 μl of these diluted inocula was dispensed in each well. The final bacterial inoculum reached in each well was equal 5×10^5 CFU/mL. The plates were incubated at 37° C. for 24 hrs. The MIC was read visually as the lowest concentration of mupirocin inhibiting the growth of bacteria as evident from the absence of turbidity. […]

For assay [2], the system named is Staphylococcus aureus 1199B (Nor A overexpressing). Briefly: Nor A efflux pump inhibition, broth checkerboard combination with ciprofloxacin. As to conditions: for MEC4 (minimum effective concentration of compound that brings about 4 fold reduction in the MIC of Ciprofloxacin): in combination with ciprofloxacin. On the procedure:
Combination studies were performed by a broth checkerboard method A series of twofold dilutions of test ciprofloxacin in Muller Hinton Broth (pH 7.0) was tested in combination with twofold dilutions of boeravinone B in 96-well microtiter plates. The final concentrations of ciprofloxacin ranged from 0.03 mg/L/ml to 64 mg/L and for boeravinone B from 0.8 mg/L to 50 mg/L. Piperine at a same concentration range as that of boeravinone B was used as standard EPI. Nor A overexpressing derivative of a clinical isolate (SA-1199B) obtained from S. aureus strain ATCC No. 29213 (American Type Culture Collection Manassas, Va., USA) was kindly gifted by Dr G. W. Kaatz (Wayne State University School of Medicine, Detroit, Mich., USA). Bacterial inocula were prepared by adjusting the inoculum density of the overnight grown Staphylococcus aureus 1199B (Nor A overexpressing) to 0.5 McFarland (˜1.5×10^8 CFU/mL of Escherichia coli). These inocula were diluted 1:100 in sterile normal saline and 100 μl of these diluted inocula was dispensed in each well. The final bacterial inoculum reached in each well was equal 5×10^5 CFU/mL. The plates were incubated at 37° C. for 24 hrs. The MIC was read visually as the lowest concentration of ciprofloxacin inhibiting the growth of bacteria as evident from the absence of turbidity.

The test system of assay [3] is Staphylococcus aureus SA-K2191 (Msr A overexpressing). Briefly: Msr A efflux pump inhibition, broth checkerboard combination with erythromycin. The procedure:
Combination studies were performed by a broth checkerboard method. A series of two-fold dilutions of test Erythromycin in Muller Hinton Broth (pH 7.0) was tested in combination with twofold dilutions of boeravinone B in 96-well microtiter plates. The final concentrations of erythromycin ranged from 0.03 mg/L/ml to 64 mg/L and for boeravinone B from 0.8 mg/L to 50 mg/L. MsrA overexpressing S. aureus derivative (RN4220) obtained by transforming with pSK265 into which the gene for MsrA has been cloned from S. aureus ATCC 29213 (American type culture collection Manassas, Va., USA) was kindly gifted by Dr G. W. Kaatz (Wayne State University School of Medicine, Detroit, Mich., USA). Bacterial inocula were prepared by adjusting the inoculum density of the overnight grown Staphylococcus aureus SA-K2191 (Msr A overexpressing) to 0.5 McFarland (˜1.5×10^8 CFU/mL of Escherichia coli). These inocula were diluted 1:100 in sterile normal saline and 100 μl of these diluted inocula was dispensed in each well. The final bacterial inoculum reached in each well was equal 5×10^5 CFU/mL. The plates were incubated at 37° C. for 24 hrs. The MIC was read visually as the lowest concentration of erythromycin inhibiting the growth of bacteria as evident from the absence of turbidity. […]

Setting [4] is: at 25 μM concentration of boeravinone B.

For the compound `C/C(=C\C(=O)OCCCCCCCCC(=O)O)C[C@@H]1OC[C@H](C[C@@H]2O[C@H]2[C@@H](C)[C@H](C)O)[C@@H](O)[C@H]1O` [mupirocin, reference compound], the MIC in assay [1] (24 h, read-out: MIC of mupirocin Alone, mupirocin alone, S. aureus Mupr-1, 24 hrs) was 256 µg/mL.
In the case of `Cc1c(O)cc2oc3c(c(=O)c2c1O)-c1ccccc1OC3O` (centres unmarked) [Boeravinone B, 6,9,11-trihydroxy-10-methyl[1]benzopyrano[3,4-b][1]benzopyran-12(6H)-one], the MIC in assay [1] (read-out: MIC of mupirocin in presence of compound, compound concentration 0.7 μM) was 256 µg/mL; in assay [1] (read-out: MIC of mupirocin in presence of compound, compound concentration 1.5 μM), 256 µg/mL; in assay [1] (read-out: MIC of mupirocin in presence of compound, compound concentration 3.12 μM), 256 µg/mL; in assay [1] (read-out: MIC of mupirocin in presence of compound, compound concentration 6.25 μM) it was 256 µg/mL; in assay [1] (read-out: MIC of mupirocin in presence of compound, compound concentration 12.5 μM), 128 µg/mL; in assay [1] (read-out: MIC of mupirocin in presence of compound, compound concentration 25 μM), 64 µg/mL. Also, in assay [1] (read-out: MIC of mupirocin in presence of compound, compound concentration 50 μM), the MIC is 64 µg/mL. The “reduction of MIC of mupirocin” value in assay [1] (setting [4]) stood at 4 fold. Besides, the “enhancement in antibacterial activity of mupirocin” value in assay [1] (combination with mupirocin, MDR S. aureus, concentration not given) is 4 folds. For the same compound, the “MEC4 (minimum effective concentration of boeravinone B that brings about 4 fold reduction in the MIC of Mupirocin)” value in assay [1] (in combination with mupirocin) came out at 25 µM. Further, in assay [2] (at highest concentration (50 μM) of boeravinone B), the “decrease of the MIC of ciprofloxacin” value turned out to be 8 folds. The “enhancement in antibacterial activity of ciprofloxacin” value in assay [2] (combination with ciprofloxacin, MDR S. aureus, concentration not given) is 8 folds. The “MIC of ciprofloxacin in presence of compound” value is 8 µg/mL in assay [2] (compound concentration 0.7 μM); 8 µg/mL in assay [2] (compound concentration 1.5 μM); 4 µg/mL in assay [2] (compound concentration 3.12 μM); 4 µg/mL in assay [2] (compound concentration 6.25 μM); 2 µg/mL in assay [2] (compound concentration 12.5 μM); 1 µg/mL in assay [2] (compound concentration 25 μM). The “MIC of ciprofloxacin in presence of compound” value in assay [2] (compound concentration 50 μM) was found to be 1 µg/mL. The “MEC4 (minimum effective concentration of compound that brings about 4 fold reduction in the MIC of Ciprofloxacin)” value in assay [2] was determined as 12.5 µM. The “reduction of MIC of erythromycin” value in assay [3] (setting [4]) came to 4 folds. In addition, in assay [3] (combination with erythromycin, MDR S. aureus, concentration not given), the “enhancement in antibacterial activity of erythromycin” value is 4 folds. Further, the “MIC of Erythromycin in presence of compound” value in assay [3] (compound concentration 0.7 μM) amounted to 64 µg/mL; in assay [3] (compound concentration 1.5 μM), 64 µg/mL; in assay [3] (compound concentration 3.12 μM) it was 64 µg/mL; in assay [3] (compound concentration 6.25 μM), 64 µg/mL; in assay [3] (compound concentration 12.5 μM), 32 µg/mL; in assay [3] (compound concentration 25 μM), 16 µg/mL. The “MIC of Erythromycin in presence of compound” value in assay [3] (compound concentration 50 μM) was found to be 16 µg/mL. Moreover, in assay [3] (in combination with erythromycin), the “MEC4 (minimum effective concentration of boeravinone B that brings about 4 fold reduction in the MIC of erythromycin)” value is 25 µM.
With `O=C(O)c1cn(C2CC2)c2cc(N3CCNCC3)c(F)cc2c1=O` [Ciprofloxacin, ciprofloxacin, reference compound], the MIC in assay [2] (Staphylococcus aureus, 24 h, read-out: MIC Ciprofloxacin Alone) worked out at 8 µg/mL.
Turning to `CC[C@H]1OC(=O)[C@H](C)[C@@H](O[C@H]2C[C@@](C)(OC)[C@@H](O)[C@H](C)O2)[C@H](C)[C@@H](O[C@@H]2O[C@H](C)C[C@H](N(C)C)[C@H]2O)[C@](C)(O)C[C@@H](C)C(=O)[C@H](C)[C@@H](O)[C@]1(C)O` [Erythromycin, erythromycin, reference compound], in assay [3] (Staphylococcus aureus, 24 h, read-out: MIC of Erythromycin Alone), the MIC came to 64 µg/mL.
Consider `O=C(/C=C/C=C/c1ccc2c(c1)OCO2)N1CCCCC1` [Piperine, reference compound], for which the “MIC of ciprofloxacin in presence of compound” value in assay [2] (compound concentration 0.7 μM) turned out to be 8 µg/mL; in assay [2] (compound concentration 1.5 μM), 8 µg/mL; in assay [2] (compound concentration 3.12 μM), 8 µg/mL; in assay [2] (compound concentration 6.25 μM) it was 8 µg/mL; in assay [2] (compound concentration 12.5 μM) it was 8 µg/mL; in assay [2] (compound concentration 25 μM), 4 µg/mL. Further, the “MIC of ciprofloxacin in presence of compound” value in assay [2] (compound concentration 50 μM) is 4 µg/mL. Besides, the “MEC4 (minimum effective concentration of compound that brings about 4 fold reduction in the MIC of Ciprofloxacin)” value in assay [2] was greater than 50 µM.
